Values quoted from earlier work, collected in PubChem BioAssay AID1259409 (Chemical Carcinogenesis Research Information System (CCRIS), 2018).
Where a SMILES comes first, the peptide text is derived from it. The star is where a group is joined. Leuψ(CH2N)ThzNH2 = CC(C)C[C@@H](CN1CSC[C@H]1C(N)=O)N*; Hydrocinnamoyl = O=C(CCc1ccccc1)*

Test system: rodent chemically induced tumor inhibition, incidence and multiplicity
Assay: CCRIS tumor inhibitor studies
Settings: Promoter: NONE USED

Compound	tumour outcome (control, treated, inhibition, significance) (Carcinogen: URETHANE, 51-79-6, Dose [Inhibitor]: 0.05 UMOL/G BW GIVEN AT 6 HR INTERVALS DURING THE PERIOD OF 0 TO 36 HR AFTER CARCINOGEN TREATMENT FOLLOWED BY 5 MO OBSER, Route [Inhibitor]: INTRAPERITONEAL, Species: MOUSE, Strain/Sex: ICR/FEMALE, Target Tissue: Type of Lesion: LUNG: PAPILLARY ADENOMA, Dose [Carcinogen]: 0.1 MG/G BW ONCE)	tumour outcome (control, treated, inhibition, significance) (Carcinogen: URETHANE, 51-79-6, Dose [Inhibitor]: 0.25 UMOL/G BW 1/D DURING THE PERIOD OF 5 TO 9 D AFTER CARCINOGEN TREATMENT FOLLOWED BY OBSERVATION PERIOD UNTIL END OF, Route [Inhibitor]: INTRAPERITONEAL, Species: MOUSE, Strain/Sex: ICR/FEMALE, Target Tissue: Type of Lesion: LUNG: PAPILLARY ADENOMA, Dose [Carcinogen]: 1 MG/G BW ONCE)	tumour outcome (control, treated, inhibition, significance) (Carcinogen: N-NITROSOBIS(2-OXOPROPYL)AMINE, 60599-38-4, Dose [Inhibitor]: 0, 20 UG/D FROM OSMOTIC PUMP FOR 2 MO, Route [Inhibitor]: SUBCUTANEOUS IMPLANT, Species: HAMSTER, Strain/Sex: SYRIAN/FEMALE, Target Tissue: Type of Lesion: PANCREAS: ADENOCARCINOMA)	tumour outcome (control, treated, inhibition, significance) (Carcinogen: N-NITROSOBIS(2-OXOPROPYL)AMINE, 60599-38-4, Dose [Inhibitor]: 0, 30 UG/D FOR 2 MO, Route [Inhibitor]: SUBCUTANEOUS, Species: HAMSTER, Strain/Sex: SYRIAN/FEMALE, Target Tissue: Type of Lesion: PANCREAS: ADENOCARCINOMA)
Cn1cnc2[nH]c(=O)[nH]c(=O)c21	31/59 (53%), 18/48 (38%), 28%, p 0.12	49/53 (93%), 43/62 (69%), 26%, p<0.01		
CC(C)C[C@@H](CN1CSC[C@H]1C(N)=O)NC(=O)[C@H](Cc1cnc[nH]1)NC(=O)CNC(=O)[C@@H](NC(=O)[C@H](C)NC(=O)[C@H](Cc1c[nH]c2ccccc12)NC(=O)[C@H](CCC(N)=O)NC(=O)CCc1ccccc1)C(C)C (Hydrocinnamoyl-QWAVGH-{Leuψ(CH2N)ThzNH2})			10/11 (91%), 7/11 (64%), 30%, not calculated	11/13 (85%), 12/13 (92%), -8%, not calculated
